Data on 1 molecule can be found in patent publication US20100280084A1, “Cyp1B1 Genotype” (Government of the US, as represented by the Secret ary, …, priority 2005, published 2010).

Data set [1] concerns androgen-independent prostate cancer (AIPC). As to the kind of experiment: Survival by CYP1B1*3 genotype in men with AIPC treated with docetaxel (Kaplan-Meier). The class given is in vivo, human. Particulars: for overall median survival: docetaxel 30 mg/m^2 1-hour i.v. weekly for 3 weeks, 1-week rest. How it is done: FIG. 1 depicts Kaplan-Meier curves of overall survival (o-CYP1B1*3; *-CYP1B1*1/*1 and CYP1B1*1/*3) (A) and overall progression free survival (B) in men with prostate cancer treated with docetaxel as a function of CYP1B1*3 genotype. All patients received docetaxel as a 1-hour intravenous infusion at a dose of 30 mg/m^2 in cycles of once every week for 3 consecutive weeks, followed by a 1-week rest period (n=25). DNA was extracted from a […] using a QiaBlood extraction kit (Qiagen, Valencia, Calif.) and stored at 4° C. The CYP1B1*3 alleles were analyzed by direct sequencing. The primers used for sequencing and amplification of the variant were as follows: F4-[…]; R4-[…]; F5-[…]; R5-[…]. A 50-μl reaction was prepared for polymerase chain reaction (PCR) amplification using primers F4 and R4. The reaction consisted of 1×PCR buffer, 2 mM of each of the four deoxynucleotidetriphosphates (dNTPs), 1.5 mM magnesium chloride, and 1 unit of Platinum Taq DNA polymerase. PCR conditions were: 94° C. for 5 minutes, followed by 40 cycles of 94° C. for 30 seconds, 66° C. for 30 seconds, and 72° C. for 30 seconds, with a final 7-minute cycle at 72° C. Direct nucleotide sequencing PCR was conducted using the Big Dye Terminator Cycle Sequencing Ready Reaction kit V1.1 on an ABI Prism 310 Genetic Analyzer (Applied BioSystems, Foster City, Calif.).
The CYP1B1 genotypes on germline DNA obtained from 25 men with AIPC treated with docetaxel (Aventis Pharmaceuticals, Bridgewater, N.J.) were retrospectively evaluated. The subjects were administered docetaxel intravenously over 1-hour at a dose of 30 mg/m^2 in whom detailed survival data were available (Table 1). Inclusion and exclusion criteria have been previously published (12). The study protocol was approved by the Institutional Review Board (Bethesda, Md.), and all patients provided written informed consent. DNA was isolated from whole blood and variants in the CYP1B1 gene were analyzed by direct nucleotide sequencing (see Legend to FIG. 1). The association between genotypes and progression-free survival and overall survival was determined by the Kaplan-Meier method using a two-tailed log rank test. The homozygous wild-type (CYP1B1*1/*1) and heterozygous variant (CYP1B1*1/*3) genotypes were pooled in the analysis on the basis of similarity of outcomes. The associated p-value was adjusted to be two times the unadjusted value to account for the two implicit comparisons made in determining the desirability of combining groups. Progression was censored at the off study date if a patient was removed for toxicity or another reason.

Data set [2] deals with transfected Chinese hamster ovary cells. Particulars: reversible by chemical inhibition (references 2, 3); cited from earlier work.
Data set [3] in a line: Docetaxel clearance as a function of CYP1B1*3 genotype in 23 patients. To be noted: human, in vivo, P=0.39. The protocol: To exclude the possibility that the observed decreased survival time for subjects carrying the CYP1B1*3/*3 variant was the result of altered exposure to docetaxel, the pharmacokinetic data generated in a previous study (15) in 23 patients treated with docetaxel as a function of CYP1B1*3 genotype was analyzed.

In data set [4] the target is T1, CYP1B1 (Homo sapiens, UniProt Q16678).
T1 sequence (Q16678 1-543): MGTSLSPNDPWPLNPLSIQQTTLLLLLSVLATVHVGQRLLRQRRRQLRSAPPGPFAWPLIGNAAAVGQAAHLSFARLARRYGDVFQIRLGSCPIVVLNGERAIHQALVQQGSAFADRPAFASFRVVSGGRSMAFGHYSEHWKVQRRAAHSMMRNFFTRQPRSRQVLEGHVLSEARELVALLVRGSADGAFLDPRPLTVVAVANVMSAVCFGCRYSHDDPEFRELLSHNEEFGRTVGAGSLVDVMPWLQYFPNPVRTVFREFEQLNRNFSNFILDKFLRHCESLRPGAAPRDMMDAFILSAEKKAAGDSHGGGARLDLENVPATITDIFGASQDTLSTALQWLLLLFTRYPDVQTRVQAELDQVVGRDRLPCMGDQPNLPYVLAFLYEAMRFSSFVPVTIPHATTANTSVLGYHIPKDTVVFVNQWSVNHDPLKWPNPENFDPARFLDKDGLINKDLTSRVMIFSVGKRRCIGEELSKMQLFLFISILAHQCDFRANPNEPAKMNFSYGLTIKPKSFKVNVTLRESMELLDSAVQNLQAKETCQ
To be noted: in vitro studies (reference 16); cited from earlier work.

The target in data set [5] is T1, CYP1B1. Particulars: previous preclinical studies (references 2, 3); cited from earlier work.

As to `CC(=O)O[C@@]12CO[C@@H]1C[C@H](O)[C@@]1(C)C(=O)[C@H](O)C3=C(C)[C@@H](OC(=O)[C@H](O)[C@@H](NC(=O)OC(C)(C)C)c4ccccc4)C[C@@](O)([C@@H](OC(=O)c4ccccc4)[C@H]21)C3(C)C` [docetaxel], the overall median survival in data set [1] (5 patients homozygote variant (CYP1B1*3/*3)) is 7.5 months; in data set [1] (7 wild type plus 13 heterozygotes (CYP1B1*1/*1 and *1/*3 pooled)) it was 15.3 months. The progression free survival is 3.3 months in data set [1] (CYP1B1*3/*3 variant, P=0.13 versus pooled genotypes); 6.2 months in data set [1] (pooled wild type and heterozygous genotypes, P=0.13 versus CYP1B1*3/*3). Further, in data set [1] (CYP1B1*3/*3 versus pooled wild type and heterozygotes, P=0.012), the “decrease in median survival time” value came to 7.8 months. For the same molecule, the “effect of CYP1B1 overexpression on cellular sensitivity to docetaxel” value in data set [2] was “docetaxel resistance”. The clearance (commonly a measure of how efficiently the substance is removed, as volume per time) was 533 mL/min in data set [3] (patients homozygous for the variant allele, 95% CI 26.9 to 37.0 L/h) and 637 mL/min in data set [3] (patients homozygous or heterozygous for the wild-type allele, 95% CI 27.5 to 48.9 L/h). Also, the “metabolism by CYP1B1” value on CYP1B1 [4] is given as “not directly metabolized by CYP1B1”. Besides, on CYP1B1 [5], the “inhibition of CYP1B1-mediated ethoxyresorufin O-deethylation” value is recorded as “competitively inhibits”.
